Values joined by “and” are separate entries in the source; they are usually repeats but may differ in a detail not shown here. Equal values may be shown once. Read-outs that look alike come from different tables or passages of the source. Ends that are not written are not given here.
Assays:
MDCK-II cells = conditions: for Absorbance values - cytotoxicity at 24 h: MTT 570 nm; for Absorbance values - cytotoxicity at 24 h / Percentages of cytotoxicity at 24 h: replicates
[1] = test system: Influenza A virus (A / WSN /33); test: microbe, parasite or virus in culture; conditions: MDCK-II, 24 h
[2] = test system: Influenza A virus (A / WSN /33)
Vero cells = conditions: for Absorbance values - cytotoxicity at 24 h / Percentages of cytotoxicity at 24 h / cytotoxicity (in words): Vero cells; for Absorbance values - cytotoxicity at 24 h: MTT 570 nm; for Absorbance values - cytotoxicity at 24 h / Percentages of cytotoxicity at 24 h: replicates
Experimental: (§1) Antiviral activity was determined at 24 h using an immunofluorescence-based assay. Cytotoxicity was determined using an MTT assay on uninfected cells treated with the same concentrations of peptide.
(§2) Virus and peptide were left on the cells for the entire duration of the experiment (24 h).
(§3) Either immediately after infection, or 2 h after infection, 50µl of treatment from the dilution plate were transferred to the cells in each plate (infectivity and cytotoxicity). […] 50 µl of media without diluent were added to the cytotoxicity plate instead of virus. Both plates were incubated at 37° C., 5% CO2 for 24 h.
(§4) The cytotoxicity plate was treated with MTT to determine cell viability.
(§5) Cytotoxicity was detected by MTT assay following standard protocols and techniques. Briefly, the MTT reagent (Sigma, M5655) was added to the cells for 2 h at 37° C., 5% CO2, after which the media was removed and the precipitate solubilized with a mixture of 1: 1 Isopropanol: DMSO for 20 minutes. The supernatant was transferred to a clean plate and signal read at 570 nm.

in vitro [3] = conditions: African green monkey
Experimental: as §1, §2, §3, §4, §5

[4] = Preliminary safety in pilot studies using human subjects; format: in vivo
SARS-CoV2 [5] = test system: SARS-CoV2
in vitro [6] = conditions: dog, MTT
SARS-CoV2 [7] = test: microbe, parasite or virus in culture; conditions: Severe acute respiratory syndrome coronavirus 2, Vero, 24 h
SARS-CoV-2 = test: Clinical study of INS peptide (GAMMORA) in patients with moderate to severe COVID-19; format: in vivo, human; conditions: of 15 treated, 40 mg/day SC for 9 days plus standard of care (Atripla)
[8] = uninfected Vero cells, MTT, 24 h

O=C(Nc1ccc([N+](=O)[O-])cc1Cl)c1cc(Cl)ccc1O [Niclosamide, reference compound]
Absorbance values - cytotoxicity at 24 h (MDCK-II cells; 0 µM): 0.1646 and 0.1811 | Percentages of cytotoxicity at 24 h (MDCK-II cells; 0 µM): 16.58% and 8.22% | Absorbance values - cytotoxicity at 24 h (MDCK-II cells; 0.01 µM): 0.2048 | Percentages of cytotoxicity at 24 h (MDCK-II cells; 0.01 µM): -3.79% | Absorbance values - cytotoxicity at 24 h (MDCK-II cells; 0.04 µM): 0.2247 and 0.2292 | Percentages of cytotoxicity at 24 h (MDCK-II cells; 0.04 µM): -13.87% and -16.15% | Absorbance values - cytotoxicity at 24 h (MDCK-II cells; 0.12 µM): 0.213 and 0.2407 | Percentages of cytotoxicity at 24 h (MDCK-II cells; 0.12 µM): -7.94% and -21.98% | Absorbance values - cytotoxicity at 24 h (MDCK-II cells; 0.37 µM): 0.2429 and 0.2319 | Percentages of cytotoxicity at 24 h (MDCK-II cells; 0.37 µM): -23.1% and -17.52% | Absorbance values - cytotoxicity at 24 h (MDCK-II cells; 1.11 µM): 0.227 and 0.2465 | Percentages of cytotoxicity at 24 h (MDCK-II cells; 1.11 µM): -15.04% and -24.92% | Absorbance values - cytotoxicity at 24 h (MDCK-II cells; 3.33 µM): 0.2005 and 0.1965 | Percentages of cytotoxicity at 24 h (MDCK-II cells; 3.33 µM): -1.61% and 0.42% | Absorbance values - cytotoxicity at 24 h (MDCK-II cells; 10 µM): 0.107 and 0.1166 | Percentages of cytotoxicity at 24 h (MDCK-II cells; 10 µM): 45.77% and 40.91% | EC50 [1]: 0.61 µM | EC90 [1]: 3.06 µM | SI50 (=TC50/EC50) [2]: 16.84 | SI90 (=TC90/EC90) [2]: 4.19

WTAVQMAVFIHNFKRK [Codivir]
Absorbance values - cytotoxicity at 24 h (MDCK-II cells; 0.05 µM): 0.0985 and 0.1183 and 0.1389 and 0.1493 and 0.1468 and 0.1612 | Absorbance values - cytotoxicity at 24 h (MDCK-II cells; 0.15 µM): 0.1552 and 0.1707 and 0.1789 and 0.1965 and 0.1896 and 0.2019 | Absorbance values - cytotoxicity at 24 h (MDCK-II cells; 0.46 µM): 0.1522 and 0.1679 and 0.2104 and 0.2062 and 0.1922 and 0.1978 | Absorbance values - cytotoxicity at 24 h (MDCK-II cells; 4.17 µM): 0.2071 and 0.1982 and 0.2203 and 0.2153 and 0.2027 and 0.2054 | Absorbance values - cytotoxicity at 24 h (MDCK-II cells; 12.50 µM): 0.183 and 0.2158 and 0.2057 and 0.2165 and 0.2045 and 0.2113 | Absorbance values - cytotoxicity at 24 h (MDCK-II cells; 25.00 µM): 0.1794 and 0.1713 and 0.1708 and 0.1681 and 0.1845 and 0.1841 | Absorbance values - cytotoxicity at 24 h (MDCK-II cells; 75.00 µM): 0.0422 and 0.0436 and 0.0425 and 0.0421 (2×) and 0.0419 | TC90 (MDCK-II cells; MTT, 24 h): around 100 µM | cytotoxicity (in words) (MDCK-II cells; highest concentrations tested): Some cytotoxicity | Percentages of cytotoxicity at 24 h (MDCK-II cells; post infection, 0.05 µM): 24.34% and 25.6% and 18.31% | Percentages of cytotoxicity at 24 h (MDCK-II cells; post infection, 0.15 µM): 0.42% and 3.91% and -2.32% | Percentages of cytotoxicity at 24 h (MDCK-II cells; post infection, 0.46 µM): -4.5% and 2.6% and -0.24% | Percentages of cytotoxicity at 24 h (MDCK-II cells; post infection, 4.17 µM): -9.11% and -2.72% and -4.09% | Percentages of cytotoxicity at 24 h (MDCK-II cells; post infection, 12.50 µM): -9.72% and -3.64% and -7.08% | Percentages of cytotoxicity at 24 h (MDCK-II cells; post infection, 25.00 µM): 14.81% and 6.5% and 6.7% | Percentages of cytotoxicity at 24 h (MDCK-II cells; post infection, 75.00 µM): 78.66% (2×) and 78.77% | Percentages of cytotoxicity at 24 h (MDCK-II cells; with infection, 0.05 µM): 50.08% and 40.05% and 29.61% | Percentages of cytotoxicity at 24 h (MDCK-II cells; with infection, 0.15 µM): 21.35% and 13.49% and 9.34% | Percentages of cytotoxicity at 24 h (MDCK-II cells; with infection, 0.46 µM): 22.87% and 14.91% and -6.63% | Percentages of cytotoxicity at 24 h (MDCK-II cells; with infection, 4.17 µM): -4.95% and -0.44% and -11.64% | Percentages of cytotoxicity at 24 h (MDCK-II cells; with infection, 12.50 µM): 7.26% and -9.36% and -4.24% | Percentages of cytotoxicity at 24 h (MDCK-II cells; with infection, 25.00 µM): 9.08% and 13.19% and 13.44% | Percentages of cytotoxicity at 24 h (MDCK-II cells; with infection, 75.00 µM): 78.61% and 77.9% and 78.46% | Absorbance values - cytotoxicity at 24 h (Vero cells; 0.05 uM): 0.1161 and 0.1456 and 0.1448 and 0.1447 and 0.1351 | Percentages of cytotoxicity at 24 h (Vero cells; 0.05 uM): 4.24% and -20.09% and -19.43% and -19.35% and -9.12% and -11.43% | Absorbance values - cytotoxicity at 24 h (Vero cells; 0.15 uM): 0.1361 and 0.143 and 0.1487 and 0.1479 and 0.1455 and 0.1446 | Percentages of cytotoxicity at 24 h (Vero cells; 0.15 uM): -12.26% and -17.95% and -22.65% and -21.99% and -20.01% and -19.27% | Absorbance values - cytotoxicity at 24 h (Vero cells; 0.46 uM): 0.1454 and 0.1447 and 0.1452 and 0.1433 and 0.1468 and 0.1493 | Percentages of cytotoxicity at 24 h (Vero cells; 0.46 uM): -19.93% and -19.35% and -19.76% and -18.20% and -21.08% and -23.15% | Absorbance values - cytotoxicity at 24 h (Vero cells; 4.17 uM): 0.1306 and 0.1426 and 0.1477 and 0.1432 and 0.1433 and 0.1556 | Percentages of cytotoxicity at 24 h (Vero cells; 4.17 uM): -7.72% and -17.62% and -21.83% and -18.12% and -18.20% and -28.34% | Absorbance values - cytotoxicity at 24 h (Vero cells; 12.50 uM): 0.1196 and 0.1315 and 0.1325 and 0.1324 and 0.1314 and 0.1395 | Percentages of cytotoxicity at 24 h (Vero cells; 12.50 uM): 1.35% and -8.46% and -9.29% and -9.21% and -8.38% and -15.06% | Absorbance values - cytotoxicity at 24 h (Vero cells; 25.00 uM): 0.0691 and 0.075 and 0.0733 and 0.0763 and 0.0762 and 0.0822 | Percentages of cytotoxicity at 24 h (Vero cells; 25.00 uM): 43.00% and 38.14% and 39.54% and 37.07% and 37.15% and 32.20% | Absorbance values - cytotoxicity at 24 h (Vero cells; 75.00 uM): 0.0407 and 0.0403 (2×) and 0.0389 and 0.0414 and 0.0421 | Percentages of cytotoxicity at 24 h (Vero cells; 75.00 uM): 66.433% and 66.76% (2×) and 67.91% and 65.85% and 65.27% | cytotoxicity (in words) (Vero cells; at concentrations giving 90% inhibition of infectivity): minimal cytotoxicity | cytotoxicity (in words) (Vero cells; highest concentrations tested): Some cytotoxicity | TC90 (Vero cells; [8]): 143.6 µM | TC99.9 (Vero cells; [8]): 185.9 µM | CC50 at 24 h (in vitro [3]): 43.5 µM | adverse events / severe adverse events [4]: No adverse events or severe adverse events were detected | tolerability, side effects [4]: tolerable, exhibits no reported side effects and no harm to immune system, with no adverse events | vital signs, physical examinations [4]: no significant differences | blood tests ([4]; relative to baseline): no significant changes relative to the baseline | EC50 (SARS-CoV2 [5]; 24 h): 12.5 µM | CC50 at 24 h (in vitro [6]; TC50, text, MDCK-II cells): ~50 µM | CC50 at 24 h (in vitro [6]; uninfected MDCK-II cells, TC50, post-infection row): 51 µM | CC50 at 24 h (in vitro [6]; uninfected MDCK-II cells, TC50, with infection row): 49.2 µM

CCC(CC)COC(=O)[C@H](C)N[P@](=O)(OC[C@H]1O[C@@](C#N)(c2ccc3c(N)ncnn23)[C@H](O)[C@@H]1O)Oc1ccccc1 [Remdesivir, reference compound]
Absorbance values - cytotoxicity at 24 h (Vero cells; 0.01 uM): 0.1378 and 0.1381 | Absorbance values - cytotoxicity at 24 h (Vero cells; 0.03 uM): 0.147 and 0.1423 | Absorbance values - cytotoxicity at 24 h (Vero cells; 0.08 uM): 0.1483 and 0.1462 | Absorbance values - cytotoxicity at 24 h (Vero cells; 0.25 uM): 0.1554 and 0.1531 | Absorbance values - cytotoxicity at 24 h (Vero cells; 0.74 uM): 0.1606 and 0.1568 | Absorbance values - cytotoxicity at 24 h (Vero cells; 2.22 uM): 0.1599 and 0.1541 | Absorbance values - cytotoxicity at 24 h (Vero cells; 6.67 uM): 0.1198 and 0.1127 | Absorbance values - cytotoxicity at 24 h (Vero cells; 20 uM): 0.1234 and 0.1247 | EC99.9 (SARS-CoV2 [5]): 4.4 µM | EC50 (SARS-CoV2 [7]): 1.28 µM | EC90 (SARS-CoV2 [7]): 3.9 µM

WTAVQMAVFIHNFKRK [INS-HC1]
patients recovered completely and negative for SARS-CoV-2 at end of study (SARS-CoV-2): Four | patients discharged from intensive care unit (ICU) to the general ward with almost full recovery (SARS-CoV-2; moderate to severe COVID-19, control group (Atripla only): 14 out of 15 died): 15 patients
